The results in this text go back to the Biogen ADME set (Fang et al. 2023).

For this data set the following is noted: for aqueous solubility: pH 6.8.

The structures appear in SMILES notation. Converted amounts (≈) assume the structure as drawn. A value given as a limit tells only on which side of the number the result lay.

As for `CC(=O)N1CCCN(C(=O)Cc2csc(C(C)C)n2)CC1`, the MDR1-MDCK efflux ratio turned out to be 20.4; the intrinsic clearance, human liver microsomes was ≤ 4.74 mL/min/kg; the intrinsic clearance, rat liver microsomes stood at 33.4 mL/min/kg; the aqueous solubility was 55.1 µg/mL (≈ 178 µM).
Compound `Cc1ccc(NC(=O)c2cc(-c3ccccn3)nc3ccccc23)nc1` yielded an aqueous solubility of 0.18 µg/mL (≈ 0.529 µM).
Regarding `CCCOc1ccccc1C(=O)N1CC(Oc2cccc(OC)c2)C1`, the MDR1-MDCK efflux ratio stood at 0.72; the intrinsic clearance, human liver microsomes was determined as 92.8 mL/min/kg; the intrinsic clearance, rat liver microsomes is 1360 mL/min/kg; the aqueous solubility stood at 42.3 µg/mL (≈ 124 µM).
The compound `CN(Cc1cnccn1)C(=O)c1cc(-c2ccc(F)cc2)on1` gave an aqueous solubility of 16 µg/mL (≈ 51.2 µM).
Turning to `COc1cc2c(cc1OC)CN(C(=O)C1CCCN(C(=O)c3ccc(Cl)cc3)C1)CC2` (centres undefined), the MDR1-MDCK efflux ratio was found to be 10.1.
For `O=C(c1cc(-c2cccc(Cl)c2)on1)N1CCC(n2cccc2)CC1`, the MDR1-MDCK efflux ratio worked out at 0.698; the intrinsic clearance, human liver microsomes is 15.4 mL/min/kg; the intrinsic clearance, rat liver microsomes came to 274 mL/min/kg; the aqueous solubility was 10.5 µg/mL (≈ 29.4 µM).
As for `Cc1nc(C(=O)NC2CC2)ccc1C#N`, the aqueous solubility was 36.2 µg/mL (≈ 180 µM).
On to `CC1(C)Cc2cc(NC(=O)c3cnn4cccnc34)c(OCC3CC3)nc2O1`, for which the MDR1-MDCK efflux ratio was 0.316; the fraction unbound, human plasma worked out at 0.00631; the fraction unbound, rat plasma amounted to 0.0241; the aqueous solubility turned out to be 0.7 µg/mL (≈ 1.84 µM).
Consider `O=C1CCCc2c1[nH]c1cc(-n3ccnc3-c3ccncc3)ccc21`, for which the MDR1-MDCK efflux ratio was 14.5; the intrinsic clearance, human liver microsomes came out at 26.7 mL/min/kg; the intrinsic clearance, rat liver microsomes is 187 mL/min/kg; the aqueous solubility came to 6.53 µg/mL (≈ 19.9 µM).
The matching figures for `CN1CCc2nc(NC(=O)c3cncn3-c3ccccc3)sc2C1`: 20.3, 5.11 mL/min/kg, 63.6 mL/min/kg and 43.4 µg/mL (≈ 128 µM).
For the compound `CC(=O)NC[C@H]1C[C@]2(C)[C@@H](CCCC[C@]2(C)O)N1CC1(O)CCCC1`, the MDR1-MDCK efflux ratio stood at 8.2; the intrinsic clearance, human liver microsomes is ≤ 4.74 mL/min/kg; the intrinsic clearance, rat liver microsomes came out at 107 mL/min/kg.
Regarding `N#CC1(NC(=O)C2CCCCCC2)CC1`, the intrinsic clearance, human liver microsomes is ≤ 4.74 mL/min/kg; the intrinsic clearance, rat liver microsomes was ≤ 10.7 mL/min/kg; the aqueous solubility turned out to be 33.4 µg/mL (≈ 162 µM).
Regarding `Cn1c(=O)oc2cc(NC(C3CC3)C3CC3)ccc21`, the intrinsic clearance, human liver microsomes stood at 13.6 mL/min/kg and the intrinsic clearance, rat liver microsomes came to 186 mL/min/kg.
For `COc1cccc(C)c1C(=O)N(C)Cc1ncc[nH]1`, the MDR1-MDCK efflux ratio amounted to 6.32; the intrinsic clearance, human liver microsomes was ≤ 4.74 mL/min/kg; the intrinsic clearance, rat liver microsomes was 425 mL/min/kg.
For `NCCOc1cccc(CC(=O)N2CCCN(C(=O)C3CCC3)CC2)c1`, the MDR1-MDCK efflux ratio worked out at 5.51; the intrinsic clearance, human liver microsomes was ≤ 4.74 mL/min/kg; the intrinsic clearance, rat liver microsomes is ≤ 10.7 mL/min/kg.
The matching figures for `COc1ccnc(N2CC(O)(C3CC3)C2)n1`: 0.711, ≤ 4.74 mL/min/kg and 25.8 mL/min/kg.
Turning to `CCN(Cc1ccccc1)C(=O)c1ccc(O)cc1O`, the MDR1-MDCK efflux ratio is 0.83; the intrinsic clearance, human liver microsomes was ≤ 4.74 mL/min/kg; the intrinsic clearance, rat liver microsomes came to 726 mL/min/kg; the aqueous solubility was determined as 46.7 µg/mL (≈ 172 µM).
`COc1ccccc1C(=O)Nc1cccc(-c2ccnc(C)n2)c1` gave an intrinsic clearance, human liver microsomes of 60.3 mL/min/kg; an intrinsic clearance, rat liver microsomes of 167 mL/min/kg; an aqueous solubility of 46.4 µg/mL (≈ 145 µM).
As for `COc1ccc2nc(C)nc(N3CC(CO)C3)c2c1`, the MDR1-MDCK efflux ratio turned out to be 11.5; the intrinsic clearance, human liver microsomes worked out at 5.26 mL/min/kg; the intrinsic clearance, rat liver microsomes was found to be 13.6 mL/min/kg; the aqueous solubility was determined as 29.3 µg/mL (≈ 113 µM).
For `CNCc1cc(N(C)C)nc(C2CCCN2C(=O)CCc2c[nH]c3ccccc23)n1` (centres undefined), the MDR1-MDCK efflux ratio is 35.1; the intrinsic clearance, human liver microsomes was determined as 50.6 mL/min/kg; the intrinsic clearance, rat liver microsomes came out at 390 mL/min/kg.
For `O=c1cc(-c2cc(F)c(Cl)nc2Cl)[nH]c2c(-c3ccccc3)c(C(F)(F)F)nn12`, in that order: 1.91, ≤ 4.74 mL/min/kg and 19.4 mL/min/kg.
For the compound `COc1ccccc1-c1ccc(CC2(C(=O)NC3CC3)CCOCC2)cc1`, the MDR1-MDCK efflux ratio amounted to 1.89; the intrinsic clearance, human liver microsomes was determined as 81.4 mL/min/kg; the intrinsic clearance, rat liver microsomes was found to be 2150 mL/min/kg; the aqueous solubility came to 41.8 µg/mL (≈ 114 µM).
The matching figures for `N#Cc1ccc(OCCn2cccn2)cc1`: 0.584, 6.93 mL/min/kg, ≤ 10.7 mL/min/kg and 39.8 µg/mL (≈ 187 µM).
Consider `Cn1cncc1-c1ncccc1C(=O)N1CCCC1`, for which the MDR1-MDCK efflux ratio amounted to 17.3; the intrinsic clearance, human liver microsomes was ≤ 4.74 mL/min/kg; the intrinsic clearance, rat liver microsomes is ≤ 10.7 mL/min/kg; the aqueous solubility is 54.2 µg/mL (≈ 211 µM).
Consider `CC(C)C(=O)N1CC(Cc2nccc3ccn(C)c23)C1`, for which the MDR1-MDCK efflux ratio was 7.28; the intrinsic clearance, human liver microsomes was ≤ 4.74 mL/min/kg; the intrinsic clearance, rat liver microsomes amounted to 51.9 mL/min/kg; the aqueous solubility is 62.7 µg/mL (≈ 231 µM).
Consider `CCc1cccc(C)c1NC(=O)c1ccc(C)o1`, for which the MDR1-MDCK efflux ratio is 0.661; the intrinsic clearance, human liver microsomes was ≤ 4.74 mL/min/kg; the intrinsic clearance, rat liver microsomes was 172 mL/min/kg.
For `O=C(Nc1cnc2ccccc2n1)c1ccncc1`, in that order: 0.578, 6.67 mL/min/kg and 127 mL/min/kg.
As for `CCCN(C(=O)c1ccc(COC)o1)c1nc2c(s1)CCc1c-2cnn1C`, the intrinsic clearance, human liver microsomes is 75.6 mL/min/kg and the intrinsic clearance, rat liver microsomes was 89 mL/min/kg.
`CC1(C)CN(C(=O)c2cscn2)CCS1(=O)=O`: the aqueous solubility was found to be 39.9 µg/mL (≈ 145 µM).
Consider `CNC(=O)c1ccc(N(C)C2CCC2)nn1`, for which the MDR1-MDCK efflux ratio is 0.586; the intrinsic clearance, human liver microsomes was 24.8 mL/min/kg; the intrinsic clearance, rat liver microsomes turned out to be 40.3 mL/min/kg; the aqueous solubility is 47.3 µg/mL (≈ 215 µM).
For `CC1(C)[C@@H]2C[C@H]1[C@@]1(O)[C@@H](C2)Oc2c(ccc(O)c2C(=O)NCCNS(C)(=O)=O)[C@@H]1O`, the MDR1-MDCK efflux ratio turned out to be 91; the intrinsic clearance, human liver microsomes was 29.3 mL/min/kg; the intrinsic clearance, rat liver microsomes was determined as 134 mL/min/kg.
Consider `COc1ccccc1CNC(=O)c1cnc(C2CCN(C(=O)C(C)(C)C)CC2)nc1C`, for which the MDR1-MDCK efflux ratio turned out to be 9.52; the intrinsic clearance, human liver microsomes turned out to be 218 mL/min/kg; the intrinsic clearance, rat liver microsomes came out at 2960 mL/min/kg; the aqueous solubility was found to be 69.7 µg/mL (≈ 164 µM).
With `COc1ccccc1N1CCN(c2nc(-c3ccc(F)cc3)cc(=O)[nH]2)CC1`, the MDR1-MDCK efflux ratio was 2.15 and the aqueous solubility was determined as 0.2 µg/mL (≈ 0.526 µM).
As for `Cc1cccc(NC(=O)C(=O)c2c(C)nn(C)c2C)n1`, the intrinsic clearance, human liver microsomes is 19.4 mL/min/kg and the intrinsic clearance, rat liver microsomes is 231 mL/min/kg.
With `Cc1cc(C(=O)N(C)Cc2ccsc2)no1`, the MDR1-MDCK efflux ratio was 0.653; the intrinsic clearance, human liver microsomes stood at 11 mL/min/kg; the intrinsic clearance, rat liver microsomes was found to be 241 mL/min/kg; the aqueous solubility was 34.1 µg/mL (≈ 144 µM).
For `Cc1cccc(Oc2ncccc2N)c1C`, in that order: 0.588, 11.7 mL/min/kg, 308 mL/min/kg and 45.3 µg/mL (≈ 212 µM).
Turning to `Cc1nnsc1CN(C)c1ccc2cc[nH]c2n1`, the MDR1-MDCK efflux ratio is 0.593; the intrinsic clearance, human liver microsomes was found to be 39.3 mL/min/kg; the intrinsic clearance, rat liver microsomes came to 342 mL/min/kg; the aqueous solubility was 24.5 µg/mL (≈ 94.5 µM).
With `C=CC(=O)Nc1cccc(Oc2nc(Nc3ccc(N4CCN(C)CC4)cc3)nc3ccoc23)c1`, the MDR1-MDCK efflux ratio is 22; the fraction unbound, human plasma amounted to 0.014; the fraction unbound, rat plasma was found to be 0.00619; the intrinsic clearance, human liver microsomes came out at 16.2 mL/min/kg. In addition, the intrinsic clearance, rat liver microsomes was determined as 329 mL/min/kg and the aqueous solubility was determined as 28.6 µg/mL (≈ 60.8 µM).
With `COc1cc(OC)cc(-n2c(S)nnc2COc2cccc3ccccc23)c1`, the MDR1-MDCK efflux ratio was found to be 1.65 and the aqueous solubility stood at 0.28 µg/mL (≈ 0.712 µM).
On to `COc1ccc(CNc2c(-c3ccc(OC)c(OC)c3)nc3cnccn23)cc1`, for which the MDR1-MDCK efflux ratio was found to be 2.42; the intrinsic clearance, human liver microsomes came out at 675 mL/min/kg; the intrinsic clearance, rat liver microsomes amounted to 1950 mL/min/kg; the aqueous solubility was found to be 46.9 µg/mL (≈ 120 µM).
For `Cc1[nH]nc(CCC(=O)NCCCOC2CCCC2)c1C`, the MDR1-MDCK efflux ratio came to 14.4; the intrinsic clearance, human liver microsomes came to 33.6 mL/min/kg; the intrinsic clearance, rat liver microsomes turned out to be 2410 mL/min/kg.
With `CCC1=C(C)CN(C(=O)NCCc2ccc(S(=O)(=O)NC(=O)N[C@H]3CC[C@H](C)CC3)cc2)C1=O`, the MDR1-MDCK efflux ratio was determined as 68.6; the fraction unbound, human plasma was determined as 0.00066; the fraction unbound, rat plasma is 0.00023; the intrinsic clearance, human liver microsomes is 19.2 mL/min/kg. Also, the intrinsic clearance, rat liver microsomes was determined as 305 mL/min/kg.
In the case of `NC1CC(NC(=O)c2ccc(-c3cn[nH]c3)cn2)C12CCC2` (centres undefined), the MDR1-MDCK efflux ratio came to 8.96; the fraction unbound, human plasma was determined as 0.513; the intrinsic clearance, human liver microsomes was found to be 8.51 mL/min/kg.
For the compound `O=C(c1cc(-c2ccccc2)[nH]n1)N1CCc2ccccc21`, the aqueous solubility came to 0.84 µg/mL (≈ 2.9 µM).
Compound `CC(Oc1ccc(Cl)cc1)C(=O)N1CCC(n2c(=O)[nH]c3ccccc32)CC1` (centres undefined) registered an intrinsic clearance, human liver microsomes of 36.2 mL/min/kg; an intrinsic clearance, rat liver microsomes of 525 mL/min/kg; an aqueous solubility of 28.9 µg/mL (≈ 72.4 µM).
In the case of `Cc1ccc(C(=O)C(=O)NC2CCCC2)cc1`, the MDR1-MDCK efflux ratio turned out to be 0.471; the intrinsic clearance, human liver microsomes was 104 mL/min/kg; the intrinsic clearance, rat liver microsomes was 465 mL/min/kg; the aqueous solubility is 30.2 µg/mL (≈ 131 µM).
For `O=C(NCc1ccc2c(c1)OCCO2)c1sccc1C1CC1`, in that order: 0.474, 147 mL/min/kg, 2320 mL/min/kg and 31.2 µg/mL (≈ 98.9 µM).

As a reminder, the aqueous solubility is the concentration that dissolves in the medium under given conditions. A lower aqueous solubility goes with little dissolved substance.
